{"source": "paper PMC9264725", "about": "(European Journal of Medicinal Chemistry, 2022)", "key": {"M^Pro": {"test_system": "M^Pro", "details": "cited from earlier work"}, "[1]": {"target": "M^Pro-eGFP ectopically expressed in 293T cells (Severe acute respiratory syndrome coronavirus 2, UniProt P0DTD1)", "experiment": "cell-based", "type": "cell-based, SARS-CoV-2"}, "[2]": {"test_system": "SARS-CoV-2 USA-WA1/2020 strain", "experiment": "Plaque reduction neutralization test in Vero E6 cells, USA-WA1/2020", "type": "cell-based", "details": "PRNT, three days"}, "SARS-CoV-2 Beta strain": {"test_system": "SARS-CoV-2 Beta strain", "experiment": "Plaque reduction neutralization test in Vero E6 cells, Beta", "type": "cell-based", "details": "PRNT, three days"}, "SARS-CoV-2 Delta strain": {"test_system": "SARS-CoV-2 Delta strain", "experiment": "Plaque reduction neutralization test in Vero E6 cells, Delta", "type": "cell-based", "details": "PRNT, three days"}, "[3]": {"details": "rats, oral administration; cited from earlier work"}, "SARS-CoV-2": {"test_system": "SARS-CoV-2", "details": "read-out: EC50 as SARS-CoV-2 inhibitor; cited from earlier work"}}, "note": "Like-named read-outs stand apart in the source and are kept apart here."}
{"compound": "CC(C)(C)NC(=O)N[C@H](C(=O)N1C[C@H]2[C@@H]([C@H]1C(=O)NC(CC1CCC1)C(=O)C(N)=O)C2(C)C)C(C)(C)C", "note": "(stereo partly shown) [Boceprevir]", "values": [{"measurement": "IC50", "setting": "M^Pro; read-out: Enzymatic IC50, ref 15", "value": 8, "unit": "µM"}, {"measurement": "IC50", "setting": "M^Pro; read-out: Enzymatic IC50, ref 16", "value": "4.2 ± 0.6", "unit": "µM"}]}
{"compound": "CC(C)[C@H](NC(=O)NC(C)(C)C)C(=O)N[C@@H](CC1CC1)C(=O)N[C@H](C=O)C[C@@H]1CCNC1=O", "note": "[MPI39]", "values": [{"measurement": "EC50", "setting": "[1]", "value": "> 10", "unit": "µM"}]}
{"compound": "CC(C)(C)CC(=O)N[C@H](C(=O)N1C[C@H]2[C@@H]([C@H]1C(=O)N[C@H](C=O)C[C@@H]1CCNC1=O)C2(C)C)C(C)(C)C", "note": "[MPI40]", "values": [{"measurement": "Antiviral EC50", "setting": "[2]", "value": "no inhibition at all tested concentrations"}, {"measurement": "Antiviral EC50", "setting": "SARS-CoV-2 Beta strain", "value": "no inhibition at all tested concentrations"}, {"measurement": "Antiviral EC50", "setting": "SARS-CoV-2 Delta strain", "value": "no inhibition at all tested concentrations"}]}
{"compound": "CC(C)(C)OC(=O)N[C@H](C(=O)N1C[C@H]2[C@@H]([C@H]1C(=O)N[C@H](C=O)C[C@@H]1CCNC1=O)C2(C)C)C(C)(C)C", "note": "[MPI43]", "values": [{"measurement": "in cellulo potency higher than MPI40", "setting": "[1]", "value": 20, "unit": "fold"}]}
{"compound": "MPI8", "values": [{"measurement": "IC50", "setting": "M^Pro; read-out: IC50 (in vitro potency)", "value": "~0.1", "unit": "µM"}, {"measurement": "half-life", "setting": "[3]", "value": 1.22, "unit": "h"}, {"measurement": "EC50", "setting": "SARS-CoV-2", "value": 0.03, "unit": "µM"}]}
